Laboratory results as given in ChEMBL document CHEMBL3259585, “Molecular basis of the selective binding of MDMA enantiomers to the alpha4beta2 nicotinic receptor subtype: synthesis, pharmacological evaluation and mechanistic studies” (Eur J Med Chem, 2014).
pIC50, pKi: −log10 of the molar value. Calls of active or inactive are those of the source. No cut-off for these calls is given here.

How the values were obtained:
Rattus norvegicus = assay: In vivo stimulation of [3H]epibatidine binding to nicotinic acetylcholine receptor in rat prefrontal cortex relative to control; type: functional
[1] = biological target: T1, Neuronal acetylcholine receptor; alpha4/beta2 (Rattus norvegicus) (UniProt P09483+P12390); assay: Stimulation of [3H]epibatidine binding to alpha4beta2 nAChR in rat PC12 cells at 100 uM preincubated for 24 hrs followed by radioligand addition measured after 90 mins by liquid scintillation spectrometric analysis; type: cell-based; conditions: PC-12
[2] = biological target: T2, Neuronal acetylcholine receptor; alpha4/beta2 (Rattus norvegicus, UniProt P09483+P12390); assay: (§1) Displacement of [3H]epibatidine from alpha4beta2 nAChR in Sprague-Dawley rat brain cortical membrane after 3 hrs by liquid scintillation spectrometric analysis; type: tissue-based
T2 sequence (P09483 whole entry): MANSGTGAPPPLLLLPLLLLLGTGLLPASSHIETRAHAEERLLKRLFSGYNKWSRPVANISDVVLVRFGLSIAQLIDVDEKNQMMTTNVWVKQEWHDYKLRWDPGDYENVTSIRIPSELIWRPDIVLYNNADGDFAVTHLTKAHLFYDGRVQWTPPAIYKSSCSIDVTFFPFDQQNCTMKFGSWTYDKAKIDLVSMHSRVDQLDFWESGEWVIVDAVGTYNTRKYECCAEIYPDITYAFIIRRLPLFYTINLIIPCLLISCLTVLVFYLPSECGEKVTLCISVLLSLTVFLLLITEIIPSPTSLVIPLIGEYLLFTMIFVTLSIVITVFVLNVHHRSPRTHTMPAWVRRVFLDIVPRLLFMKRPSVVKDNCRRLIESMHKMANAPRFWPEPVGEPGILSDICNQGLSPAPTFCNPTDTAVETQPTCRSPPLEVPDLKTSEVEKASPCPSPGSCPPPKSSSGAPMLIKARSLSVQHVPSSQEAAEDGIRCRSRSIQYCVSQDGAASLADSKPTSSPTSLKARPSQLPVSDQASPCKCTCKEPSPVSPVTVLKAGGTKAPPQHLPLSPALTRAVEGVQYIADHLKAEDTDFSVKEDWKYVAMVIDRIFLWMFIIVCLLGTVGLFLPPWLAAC
T2 sequence (P12390 whole entry): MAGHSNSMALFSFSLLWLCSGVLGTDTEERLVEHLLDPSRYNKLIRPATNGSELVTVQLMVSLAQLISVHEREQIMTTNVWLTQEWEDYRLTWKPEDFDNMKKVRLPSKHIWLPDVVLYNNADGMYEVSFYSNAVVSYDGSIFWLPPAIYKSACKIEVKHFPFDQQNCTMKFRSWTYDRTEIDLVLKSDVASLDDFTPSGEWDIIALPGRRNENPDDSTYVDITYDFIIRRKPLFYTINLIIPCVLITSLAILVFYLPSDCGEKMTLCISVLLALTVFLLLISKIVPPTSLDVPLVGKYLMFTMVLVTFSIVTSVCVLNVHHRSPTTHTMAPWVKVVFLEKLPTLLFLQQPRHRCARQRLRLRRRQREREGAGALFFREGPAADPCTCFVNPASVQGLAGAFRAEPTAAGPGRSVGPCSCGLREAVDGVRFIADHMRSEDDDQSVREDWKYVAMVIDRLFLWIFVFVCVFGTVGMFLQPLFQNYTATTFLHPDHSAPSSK

[3] = biological target: T1, Neuronal acetylcholine receptor; alpha4/beta2 (Rattus norvegicus); assay: as §1; type: tissue-based
[4] = biological target: T2, Neuronal acetylcholine receptor; alpha4/beta2; assay: Displacement of [3H]epibatidine from alpha4beta2 nAChR in Sprague-Dawley rat brain cortical membrane after 3 hrs; type: tissue-based
[5] = biological target: Sodium-dependent serotonin transporter (Rattus norvegicus, UniProt P31652); assay: Displacement of [3H]-citalopram from SERT in Sprague-Dawley rat cortex, striatum and cerebellum-dissected brain after 60 mins by scintillation counting analysis; type: tissue-based
Sequence of Sodium-dependent serotonin transporter (P31652 whole entry): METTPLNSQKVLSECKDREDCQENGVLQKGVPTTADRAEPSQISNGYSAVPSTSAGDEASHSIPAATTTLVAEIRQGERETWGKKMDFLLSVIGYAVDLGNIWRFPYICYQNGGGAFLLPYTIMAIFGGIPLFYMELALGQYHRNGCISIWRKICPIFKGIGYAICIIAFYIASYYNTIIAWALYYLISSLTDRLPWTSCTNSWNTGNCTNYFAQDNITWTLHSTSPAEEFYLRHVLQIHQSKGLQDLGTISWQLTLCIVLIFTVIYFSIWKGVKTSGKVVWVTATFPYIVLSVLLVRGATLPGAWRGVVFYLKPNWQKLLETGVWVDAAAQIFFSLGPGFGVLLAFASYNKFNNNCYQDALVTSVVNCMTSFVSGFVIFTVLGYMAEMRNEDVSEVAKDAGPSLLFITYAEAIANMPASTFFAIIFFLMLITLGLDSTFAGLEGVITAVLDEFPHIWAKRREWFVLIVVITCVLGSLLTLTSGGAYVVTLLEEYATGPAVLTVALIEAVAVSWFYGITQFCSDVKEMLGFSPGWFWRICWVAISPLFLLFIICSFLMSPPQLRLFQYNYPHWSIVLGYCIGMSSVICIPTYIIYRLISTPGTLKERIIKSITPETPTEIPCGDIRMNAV

In the case of `CNC(C)Cc1ccc2c(c1)OCO2` (racemic) [MIDOMAFETAMINE], the Activity (Rattus norvegicus) was 35%, the Activity [1] was “Active” and the pIC50 [2] was 4.52. For the same compound, the inhibition [3] was “Dose-dependent effect” and the pKi [4] was 5.84.

With `CN[C@H](C)Cc1ccc2c(c1)OCO2` the Activity [1] was “Active”, the pIC50 [2] was 4.87 and the inhibition [3] was “Dose-dependent effect”. It also gave a pKi [4] of 6.20 and a pKi [5] of 4.61.

`CN[C@@H](C)Cc1ccc2c(c1)OCO2` was tested, and the Activity [1] was “inactive”, the pIC50 [2] was 3.76 and the inhibition [3] was “Dose-dependent effect”. It also gave a pKi [4] of 5.09.

`CN1CCC[C@H]1c1cccnc1` [NICOTINE] was tested, and the Activity (Rattus norvegicus) was 30%.
